Experimental data: patent US10752616B2, “Bicycloheteroaryl-heteroaryl-benzoic acid compounds as retinoic acid receptor beta (RARβ) agonists” (King's College London, priority 2014, dated 2020)

What was measured:
Assay type in all cases: cell-based
RARβ = RARβ (Mus musculus (Mouse), UniProt P22605); assay: Transactivation assay for RARβ (gal4-RAR fusion, pFR-luc reporter, COS-7 cells), Table 2; settings: COS-7 reporter, mean of three or more determinations, species not stated (method: mouse or human)
Chain of RARβ (P22605 210-444): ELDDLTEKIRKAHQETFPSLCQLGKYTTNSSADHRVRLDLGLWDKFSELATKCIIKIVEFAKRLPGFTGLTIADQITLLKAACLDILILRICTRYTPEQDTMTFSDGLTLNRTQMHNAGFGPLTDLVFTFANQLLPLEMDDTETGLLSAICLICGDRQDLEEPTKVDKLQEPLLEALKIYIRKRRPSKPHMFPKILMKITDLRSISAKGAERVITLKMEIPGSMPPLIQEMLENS
Method: (§1) Transcriptional transactivation assays were performed with gal4 fusion receptor constructs, created using each of the RAR ligand binding domains of either mouse or human, co-transfected with the pFR-luc (Stratagene) reporter construct in COS-7 cells.
(§2) Briefly, on day 1, 96 well plates were seeded with 8000 cells per well then left to recover overnight. On day 2, the cells were co-transfected with 100 ng of reporter plasmid and 10 ng of the appropriate receptor plasmid per well using lipofectamine (Invitrogen). On day 3, the lipofectamine containing media was replaced by a DMEM without phenol red, followed by the addition of test compound dissolved in 1 μL of DMSO to each well's 100 μL total volume. Finally, on day 4, the cells were lysed and their luciferase substrate was provided by the BrightGlo™ reagent (Promega), the plates were then read on the MicroBeta TriLux™ (Perkin Elmer).
(§3) Data for test compounds are quoted as EC50 values. Where replicate data has been generated, the data are quoted as the mean EC50 from the separate experiments.
(§4) EC50's values are reported as mean values of three or more determinations.

RARα = RARα (Mus musculus (Mouse), UniProt P11416); assay: Transactivation assay for RARα (gal4-RAR fusion, pFR-luc reporter, COS-7 cells), Table 2; settings: for EC50: Table 2, COS-7 reporter, mean of three or more determinations, inactive = no agonist action at highest concentration tested; for RARα/RARβ ratio: fold-selectivity for RARβ over RARα, >1 = selective for RARβ
Chain of RARα (P11416 183-417): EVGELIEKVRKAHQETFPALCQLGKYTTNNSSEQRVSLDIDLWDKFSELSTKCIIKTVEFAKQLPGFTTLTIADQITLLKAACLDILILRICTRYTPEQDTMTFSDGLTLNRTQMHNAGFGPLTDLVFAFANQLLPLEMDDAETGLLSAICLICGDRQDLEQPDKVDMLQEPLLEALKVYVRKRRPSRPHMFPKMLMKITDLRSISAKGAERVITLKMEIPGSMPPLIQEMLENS
Method: as §1, §2, §3, §4

RARγ = RARγ (Mus musculus (Mouse), UniProt P18911); assay: Transactivation assay for RARγ (gal4-RAR fusion, pFR-luc reporter, COS-7 cells), Table 2; settings: for EC50: Table 2, COS-7 reporter, mean of three or more determinations, inactive = no agonist action at highest concentration tested; for RARγ/RARβ ratio: fold-selectivity for RARβ over RARγ, >1 = selective for RARβ
Chain of RARγ (P18911 185-419): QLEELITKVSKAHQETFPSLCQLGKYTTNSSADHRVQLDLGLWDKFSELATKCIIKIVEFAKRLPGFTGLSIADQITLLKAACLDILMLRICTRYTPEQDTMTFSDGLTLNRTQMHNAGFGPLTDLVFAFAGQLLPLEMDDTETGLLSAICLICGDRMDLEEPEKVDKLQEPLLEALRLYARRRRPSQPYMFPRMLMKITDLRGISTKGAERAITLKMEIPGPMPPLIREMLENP
Method: as §1, §2, §3, §4

| Compound | EC50 (RARβ) | EC50 (RARα) | RARα/RARβ ratio (RARα) | EC50 (RARγ) | RARγ/RARβ ratio (RARγ) |
| --- | --- | --- | --- | --- | --- |
| Cc1ccc(C)c2oc(-c3nnc(-c4ccc(C(=O)O)cc4)o3)cc12 [BHBA-034, 4-(5-(4,7-Dimethylbenzofuran-2-yl)-1,3,4-oxadiazol-2-yl)benzoic acid] | 20 nM | 92 nM | 4.6 | 58 nM | 2.9 |
| Cc1ccc(C)c2oc(-c3noc(-c4ccc(C(=O)O)cc4F)n3)cc12 [BHBA-030, 4-(3-(4,7-Dimethylbenzofuran-2-yl)-1,2,4-oxadiazol-5-yl)-3-fluorobenzoic acid] | 10 nM | 58 nM | 5.8 | 18 nM | 1.8 |
| Cc1cc(-c2noc(-c3nc4c(C)ccc(C)c4o3)n2)ccc1C(=O)O [BHBA-025, 4-(5-(4,7-Dimethylbenzo[d]oxazol-2-yl)-1,2,4-oxadiazol-3-yl)-2-methylbenzoic acid] | 41 nM | 150 nM | – | 140 nM | – |
| Cc1c(Cl)cc(C)c2oc(-c3nc(-c4ccc(C(=O)O)cc4)no3)cc12 [BHBA-045, 4-(5-(5-Chloro-4,7-dimethylbenzofuran-2-yl)-1,2,4-oxadiazol-3-yl)benzoic acid] | 4 nM | 91 nM | – | 40 nM | – |
| Cc1cc(-c2noc(-c3cc4c(Cl)ccc(Cl)c4o3)n2)ccc1C(=O)O [BHBA-013, 2-Methyl-4-(5-(4,7-dichlorobenzofuran-2-yl)-1,2,4-oxadiazol-3-yl)benzoic acid] | 16 nM | 140 nM | – | 110 nM | – |
| Cc1ccc(C)c2oc(-c3nc(-c4ccc(C(=O)O)cc4)no3)nc12 [BHBA-023, 4-(5-(4,7-Dimethylbenzo[d]oxazol-2-yl)-1,2,4-oxadiazol-3-yl)benzoic acid] | – | – | – | 83 nM | – |
| Cc1ccc(C)c2sc(-c3nc(-c4ccc(C(=O)O)cc4Cl)no3)cc12 [BHBA-022, 3-Chloro-4-(5-(4,7-dimethylbenzo[b]thiophen-2-yl)-1,2,4-oxadiazol-3-yl)benzoic acid] | 16 nM | 77 nM | 5 | 18 nM | 1.1 |
| Cc1ccc(C)c2c(C)c(-c3nc(-c4ccc(C(=O)O)cc4)no3)oc12 [BHBA-008, 4-(5-(3,4,7-Trimethylbenzofuran-2-yl)-1,2,4-oxadiazol-3-yl)benzoic acid] | 1.9 nM | 17 nM | – | 6.8 nM | – |
| Cc1ccc(C)c2oc(-c3nc(-c4ccc(C(=O)O)cc4N)no3)cc12 [BHBA-005, 3-Amino-4-(5-(4,7-dimethylbenzofuran-2-yl)-1,2,4-oxadiazol-3-yl)benzoic acid] | 23 nM | 130 nM | 5 | 55 nM | 2 |

Other lines, results leading:

| EC50 (RARβ) | EC50 (RARα) | RARα/RARβ ratio (RARα) | EC50 (RARγ) | RARγ/RARβ ratio (RARγ) | Compound |
| --- | --- | --- | --- | --- | --- |
| 4.3 nM | 20 nM | 4.6 | 4.7 nM | 1.0 | Cc1ccc(C)c2oc(-c3nc(-c4ccc(C(=O)O)c(F)c4)ns3)cc12 [BHBA-041, 4-(5-(4,7-Dimethylbenzofuran-2-yl)-1,2,4-thiadiazol-3-yl)-2-fluorobenzoic acid] |
| 5.2 nM | 44 nM | – | 25 nM | – | Cc1cc(-c2nc(-c3cc4c(C)ccc(C)c4o3)ns2)ccc1C(=O)O [BHBA-043, 4-(3-(4,7-Dimethylbenzofuran-2-yl)-1,2,4-thiadiazol-5-yl)-2-methylbenzoic acid] |
| 14 nM | 210 nM | 15 | 19 nM | 1.3 | Cc1cc(C(=O)O)ccc1-c1nc(-c2cc3c(C)ccc(C)c3o2)no1 [BHBA-029, 4-(3-(4,7-Dimethylbenzofuran-2-yl)-1,2,4-oxadiazol-5-yl)-3-methylbenzoic acid] |
| 67 nM | 91 nM | 1.3 | 83 nM | 1.2 | Cc1cc(C(=O)O)ccc1-c1nnc(-c2cc3c(C)ccc(C)c3o2)o1 [BHBA-035, 4-(5-(4,7-Dimethylbenzofuran-2-yl)-1,3,4-oxadiazol-2-yl)-3-methylbenzoic acid] |
